Test results published in ChEMBL document CHEMBL3045702, “Cytotoxic lipid esters from Peucedanum ledebourielloides” (Med Chem Res, 2010).
Values after ≈ are worked out from the molar mass of the structure shown.

Tests used:
Assay type in all cases: functional, cell-based
HL-60 = assay: Cytotoxicity against Homo sapiens (human) HL60 cells by MTT assay
SGC-7901 = assay: Cytotoxicity against Homo sapiens (human) SGC7901 cells by MTT assay
HT-29 = assay: Cytotoxicity against Homo sapiens (human) HT-29 cells by MTT assay

CCCCCCCCCCCCCCCC(=O)OCC(CO[C@@H]1O[C@H](CO)[C@@H](O)[C@H](O)[C@H]1O)OC(=O)CCCCCCCCCCCCCCC (some centres undefined)
IC50 (HL-60): 27.7 µg/mL (≈ 37.9 µM) | IC50 (SGC-7901): 4.9 µg/mL (≈ 6.7 µM) | IC50 (HT-29): 0.21 µg/mL (≈ 0.287 µM)

CCCCCCCCCCCCCCCC(=O)OCCCCCCOC(=O)CCCCCCCCCCCCCCC
IC50 (HL-60): 0.49 µg/mL (≈ 0.824 µM) | IC50 (SGC-7901): 1.6 µg/mL (≈ 2.69 µM) | IC50 (HT-29): 34.2 µg/mL (≈ 57.5 µM)

O=c1[nH]cc(F)c(=O)[nH]1 [FLUOROURACIL]
IC50 (HL-60): 25.4 µg/mL (≈ 195 µM) | IC50 (SGC-7901): 0.58 µg/mL (≈ 4.46 µM) | IC50 (HT-29): 10.3 µg/mL (≈ 78.9 µM)
